The source of these data is patent US12611425B2, “Compositions and methods for treatment and prevention of pathogens” (WIAB WATER INNOVATION AB, priority 2022, dated 2026).

Where two headings read alike, the source gives them in different places.

For one series, the system named is S. aureus biofilms. Nature of the series: In vitro anti-biofilm effect, viable CFU counting. It is filed as cell-based, Staphylococcus aureus. The note with it: 1% glutaric acid alone. The method, then: Test organisms: Pseudomonas aeruginosa or Staphylococcus aureus wild-type strains Biofilm type: 48 hours- or 24 hours-old biofilms grown on semipermeable membranes placed on solidified medium supplemented with 0.5% glucose. In the case of 48 h-old biofilms, the membranes with biofilms were transferred onto fresh plates after 24 h.
Initial viable cell amount: 5×10^9 colony forming units (CFUs)
Treatment method: Membranes with biofilms were transferred to new plates. Eight-10 layers of sterile gauze were placed on the second membrane, and 1 ml of antimicrobial solution was pipetted on the gauze layers. The treatment was carried out at room temperature for 2-to-3 h, or 4-to-6 h. In the case of the 4-to-6 h treatments, the gauze layers were replaced with fresh gauze layers with 1 ml sample solution 2 or 3 h after the treatments had been initiated.
Evaluation method: The gauze layers were discarded, and each membrane with biofilms was transferred into a 15 ml tube containing 5 ml 0.9% NaCl, vortexed for 10 sec., sonicated in an ultrasound bath for 10 min, and vortexed again for 10 sec. Ten-fold serial dilutions were made, and 10 ul of each dilution was spot-plated on LB plates for viable CFU counting.

The subject of series [1] is bacterial log CFU/g ground chicken ground meat. The note with it: separately or in a mixture; cited from earlier work.
The conditions of series [2]: cited from earlier work.
For series [3] the following is noted: cited from earlier work. This is another data set of the same source.
In the next series the test system is human rhinovirus (HRV). The note with it: low concentration nasal irrigation solution, in vitro, nasal epithelial cells; cited from earlier work.
The next series has as its system avian influenza virus. The note with it: similar formulations, in vitro; cited from earlier work.
The nature of series [4]: Powder flow determination (funnel flow, angle of repose). Type of series: physicochemical. The note with it: for flowability: 100 g, funnel outflow opening 15 mm. On the procedure: 100 g of powdered calcium hypochlorite of sizes ≤355 μm and ≤500 μm was added, respectively, into a dry funnel (Ø110 mm, diameter of the outflow opening=15 mm), whose bottom opening has been blocked by a plastic cover. The bottom opening of the funnel was unblocked to measure the time needed for the entire sample to flow out. The flowability of particle sizes ≤355 μm and ≤500 μm is, respectively, 35.7 g/s and 37.4 g/s. The angle of repose was calculated as 29.5° and 26.8° for particle sizes 355 μm and ≤500 μm, respectively.

Series [5] can be described thus: Dissolving time of powdered calcium hypochlorite in acetic acid/acetate buffer. Type of series: physicochemical. The note with it: 2500 rpm. The method, then:
• I. 58±4 mg of all sizes of the powdered material was, respectively, dissolved in 100 mL 0.25% wt. acetic acid/acetate buffer. Particle size ≤250 μm dissolved within 10 seconds, ≤355 μm within 15 seconds and ≤500 μm within one minute and 25 seconds at 2500 rpm. • II. 58±4 mg of all sizes of the powdered material was, respectively, dissolved in 100 mL 3.0% wt. acetic acid/acetate buffer. Particle size ≤250 μm dissolved within 10 seconds, ≤355 μm within 25 seconds and ≤500 μm within 25 seconds at 2500 rpm. • III. 570±40 mg of all sizes of the powdered material was, respectively, dissolved in 100 mL 0.25% wt. acetic acid/acetate buffer. Particle size ≤250 μm dissolved within 15 seconds, ≤355 μm within 45 seconds and ≤500 μm within one minute and 35 seconds at 2500 rpm. • IV. 570±40 mg of all sizes of the powdered material was, respectively, dissolved in 100 mL 3.0% wt. acetic acid/acetate buffer. Repeated with 3.0% acetic acid/acetate buffer. Particle size ≤250 μm dissolved within 15 seconds, ≤355 μm within 15 seconds and ≤500 μm within 20 seconds at 2500 rpm.

With `O=C(O)CCCC(=O)O` [glutaric acid], the “effect on the biofilm” value with S. aureus biofilms is “only minor effect”.

On to `CC(=O)C(=O)O` [pyruvic acid], for which the “reduction of bacterial log CFU/g” value in series [1] is approximately 2 log.

With `O=C([O-])CCC(=O)O.[Na+]` [monosodium succinate], the “reduction of bacterial log CFU/g” value in series [1] was approximately 2 log.

`OCl` [hypochlorous acid]: in series [2], the pKa result is reported as “about 7”. Besides, the standard reduction potential result in series [3] (basic pH) is “+0.89”; in series [3] (low pH), “+1.49”. The virus-killing effect entry with human rhinovirus (HRV) is on record as “significant virus-killing effect”. Also, the “effects against avian influenza virus” value in the series on avian influenza virus is listed as “good effects”.

For `[Ca+2].[O-]Cl.[O-]Cl` [powdered calcium hypochlorite, calcium hypochlorite], the angle of repose in series [4] (particle size 355 μm) is listed as 29.5 °; in series [4] (particle size ≤500 μm) it was 26.8 °. The flowability in series [4] (particle size ≤355 μm) was determined as 35.7 g/s; in series [4] (particle size ≤500 μm) it was 37.4 g/s. Moreover, the dissolving time was not above 10 s in series [5] (I: 58±4 mg in 100 mL 0.25% wt. acetic acid/acetate buffer, particle size ≤250 μm); not above 15 s in series [5] (I: 58±4 mg in 100 mL 0.25% wt. buffer, particle size ≤355 μm); not above 10 s in series [5] (II: 58±4 mg in 100 mL 3.0% wt. acetic acid/acetate buffer, particle size ≤250 μm); not above 25 s in series [5] (II: 58±4 mg in 100 mL 3.0% wt. buffer, particle size ≤355 μm); not above 25 s in series [5] (II: 58±4 mg in 100 mL 3.0% wt. buffer, particle size ≤500 μm); not above 15 s in series [5] (III: 570±40 mg in 100 mL 0.25% wt. acetic acid/acetate buffer, particle size ≤250 μm). The dissolving time was not above 45 s in series [5] (III: 570±40 mg in 100 mL 0.25% wt. buffer, particle size ≤355 μm); not above 15 s in series [5] (IV: 570±40 mg in 100 mL 3.0% wt. acetic acid/acetate buffer, particle size ≤250 μm); not above 15 s in series [5] (IV: 570±40 mg in 100 mL 3.0% wt. buffer, particle size ≤355 μm); not above 20 s in series [5] (IV: 570±40 mg in 100 mL 3.0% wt. buffer, particle size ≤500 μm).
